Among the data in PubChem BioAssay (NCI) are TGI and GI50 values, retold here.

Some test systems named below: 786-0 renal; A498 renal; M14 melanoma; NCI-H226 lung; NCI-H23 lung; RPMI-8226 leukemia; SN12C renal; MDA-MB-435; NCI/ADR-RES ovarian; DU-145 prostate.
Assay in all cases: inhibition of tumour cell growth, NCI panel, 48 h

“And” between values parts separate entries of the source, which are not always exact repeats. Equal values may be shown once.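 Each compound was tested at five concentrations against cells in 96-well plates for 48 hours. Here, GI50 denotes the concentration required for 50% inhibition of growth. TGI: concentration producing complete growth inhibition.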

Turning to `Cc1cc(Cl)cc2c1NC(=O)C2(O)CC(=O)c1ccc(Br)cc1` (configuration not stated), the TGI is over 100 µM with 786-0 renal; over 70.8 µM in the experiment on A498 renal; over 100 µM in the experiment on M14 melanoma; over 100 µM with NCI-H226 lung; 99.4 µM in the experiment on NCI-H23 lung; over 100 µM with RPMI-8226 leukemia. This compound yielded a TGI in the experiment with SN12C renal of over 100 µM.
For `CCCCNS(=O)(=O)c1ccc(-c2ccc3c(c2)-c2ccc(S(=O)(=O)NCCCC)cc2S3(=O)=O)cc1`, the TGI in the experiment on 786-0 renal is 27.9 µM; in the experiment on A498 renal, 26.6 µM; with M14 melanoma it was 53.7 µM; in the experiment on NCI-H226 lung, 32 µM; with NCI-H23 lung it was 43 µM; in the experiment on RPMI-8226 leukemia, over 100 µM.
`CCOC(=O)[C@@]12C(C)=CC(=O)O[C@]1(C)C1C(=O)NC(=O)C12` (some centres not stated): the TGI in the experiment with 786-0 renal, with A498 renal, in the experiment with M14 melanoma, with NCI-H226 lung, with NCI-H23 lung and in the experiment with RPMI-8226 leukemia was over 100 µM throughout.
Turning to `O=C(O)c1c2c(cc3c(=O)c4ccccc4[nH]c13)CCCC2`, the TGI in the experiment on 786-0 renal, with NCI-H226 lung, in the experiment on NCI-H23 lung, in the experiment on RPMI-8226 leukemia and in the experiment on SN12C renal was over 100 µM each time.
Take `CCCCCCCC(=O)[O-].CCCCCCCC(=O)[O-].N.N.N.N.[Co+3].[O-][Cl+3]([O-])([O-])[O-]`: the GI50 in the experiment with 786-0 renal, with M14 melanoma, in the experiment with NCI-H226 lung, in the experiment on NCI-H23 lung, in the experiment with RPMI-8226 leukemia and with SN12C renal was over 100 µM each time. Further, the TGI in the experiment on 786-0 renal, in the experiment on M14 melanoma, with NCI-H226 lung, with NCI-H23 lung, in the experiment with RPMI-8226 leukemia and in the experiment with SN12C renal was over 100 µM throughout.
`CCc1ccc2oc(=O)ccc2c1`: the TGI with 786-0 renal, with A498 renal, in the experiment on M14 melanoma, with MDA-MB-435, in the experiment on NCI-H226 lung and in the experiment on NCI-H23 lung was over 100 µM throughout. In addition, the TGI in the experiment on NCI/ADR-RES ovarian, in the experiment on RPMI-8226 leukemia and in the experiment with SN12C renal was over 100 µM each time.
On to `Cc1ccc(N2C(=O)/C(=C/c3ccc(N(CCC#N)CCC#N)cc3)N=C2COc2ccc(Cl)cc2Cl)cc1`, for which the TGI in the experiment on 786-0 renal, with M14 melanoma, with NCI-H226 lung, in the experiment with NCI-H23 lung, in the experiment on RPMI-8226 leukemia and in the experiment on SN12C renal was over 100 µM each time.
For `O=C1C(Cl)=C(Cl)C(=O)N1c1ccc(Cl)c(Cl)c1Cl`, the TGI with 786-0 renal, in the experiment on A498 renal, in the experiment on M14 melanoma, with NCI-H226 lung, in the experiment with NCI-H23 lung and in the experiment with RPMI-8226 leukemia was over 100 µM in each case. For the same compound, the TGI with SN12C renal was over 100 µM.
Consider `CCCC(O)c1cn(-c2cccc(S(=O)(=O)O)c2)nn1` (configuration not stated), for which the TGI with 786-0 renal, with A498 renal, in the experiment with M14 melanoma, in the experiment with NCI-H226 lung, with NCI-H23 lung and in the experiment with RPMI-8226 leukemia was over 100 µM throughout. In addition, the TGI with SN12C renal is over 100 µM.
Regarding `O=C1OC(=O)C23CSCC12C1C=CC3O1` (configuration not stated), the TGI with 786-0 renal, with A498 renal, in the experiment on M14 melanoma, in the experiment with NCI-H226 lung, in the experiment on NCI-H23 lung and with RPMI-8226 leukemia was over 100 µM each time. For the same compound, the TGI in the experiment with SN12C renal was over 100 µM.
Turning to `CC(=O)OCC1OC(n2c(=O)[nH]c(=O)c3n[nH]nc32)C(OC(C)=O)C(OC(C)=O)C1OC(C)=O` (configuration not stated), the TGI with 786-0 renal, with A498 renal, in the experiment with M14 melanoma, in the experiment on NCI-H23 lung, in the experiment with RPMI-8226 leukemia and with SN12C renal was over 100 µM each time.
Regarding `COc1cc(Cc2c(C)cc(OC)c3[nH]c4ccccc4c23)cc2c1[nH]c1ccccc12`, the GI50 in the experiment on 786-0 renal was 5.38 µM; in the experiment on M14 melanoma, 5.12 µM; in the experiment on NCI-H226 lung it was 4.67 µM; in the experiment with SN12C renal, 6.4 µM. In addition, the TGI in the experiment on 786-0 renal was 14.2 µM; in the experiment on M14 melanoma, 11.8 µM; with NCI-H226 lung it was 12.8 µM; with RPMI-8226 leukemia, over 25 µM; in the experiment on SN12C renal it was 22.8 µM.
Turning to `Cc1ccc(SSCC(O)C(O)CSSc2ccc(C)cc2)cc1` (configuration not stated), the GI50 in the experiment on 786-0 renal is 5.15 µM and 12.4 µM; in the experiment on SN12C renal, 4.74 µM and 10.5 µM. In addition, the TGI in the experiment on 786-0 renal is 17.5 µM and 24.9 µM; in the experiment with A498 renal, 18 µM; in the experiment with M14 melanoma, 18.9 µM and 21.6 µM; in the experiment with NCI-H226 lung it was 30.4 µM and 29 µM; with NCI-H23 lung, 20.9 µM and 24.1 µM; with RPMI-8226 leukemia, 12.8 µM and 22 µM. Besides, in the experiment on SN12C renal, the TGI was 17.3 µM and 23.2 µM.
`COc1ccc(N2C(=O)[C@@H](N=[N+]=[N-])[C@@H]2[C@H]2COC(C)(C)O2)cc1`: the TGI in the experiment on 786-0 renal, with M14 melanoma, with NCI-H226 lung, with NCI-H23 lung, with RPMI-8226 leukemia and with SN12C renal was over 100 µM in each case.
Consider `CCC(C)(O)c1cn(-c2ccc(Cl)cc2)nn1` (configuration not stated), for which the TGI with 786-0 renal, in the experiment on A498 renal, in the experiment on M14 melanoma, with NCI-H226 lung, in the experiment on NCI-H23 lung and in the experiment with RPMI-8226 leukemia was over 100 µM throughout. In the experiment with SN12C renal, this compound yielded a TGI of over 100 µM.
With `C1CSC[C@H]2COC[C@@H](CSCCS1)S2`, the TGI with 786-0 renal, in the experiment on DU-145 prostate, with M14 melanoma, in the experiment on MDA-MB-435, with NCI-H23 lung and in the experiment on NCI/ADR-RES ovarian was over 100 µM each time. The TGI in the experiment on SN12C renal was over 100 µM.
Consider `CN1CCN=C1c1nnn(-c2ccc([N+](=O)[O-])cc2)c1-c1ccccc1`, for which the TGI in the experiment on 786-0 renal, in the experiment with A498 renal, with M14 melanoma, in the experiment with NCI-H226 lung, in the experiment on NCI-H23 lung and in the experiment with SN12C renal was over 100 µM each time.
